# Source: publication PMC10412597, “Small molecule branched-chain ketoacid dehydrogenase kinase (BDK) inhibitors with opposing effects on BDK protein levels” (Nature Communications, 2023)
# Columns and labels:
# Set-up in all cases: Invitrogen kinase panel, per cent inhibition of kinase activity
# Conditions in all cases: 10 µM, inhibitor
# HCK = HCK (Homo sapiens, UniProt P08631)
# Experimental: (§1) To discover a potent and selective BDK inhibitor, a subset of the Pfizer compound collection was screened. […] Off target activity was assessed in both CEREP and kinase panels (Supplementary Tables 2, 3).
# CHEK1 = target: T1, CHEK1 (Homo sapiens, UniProt O14757)
# T1 sequence (O14757 1-476): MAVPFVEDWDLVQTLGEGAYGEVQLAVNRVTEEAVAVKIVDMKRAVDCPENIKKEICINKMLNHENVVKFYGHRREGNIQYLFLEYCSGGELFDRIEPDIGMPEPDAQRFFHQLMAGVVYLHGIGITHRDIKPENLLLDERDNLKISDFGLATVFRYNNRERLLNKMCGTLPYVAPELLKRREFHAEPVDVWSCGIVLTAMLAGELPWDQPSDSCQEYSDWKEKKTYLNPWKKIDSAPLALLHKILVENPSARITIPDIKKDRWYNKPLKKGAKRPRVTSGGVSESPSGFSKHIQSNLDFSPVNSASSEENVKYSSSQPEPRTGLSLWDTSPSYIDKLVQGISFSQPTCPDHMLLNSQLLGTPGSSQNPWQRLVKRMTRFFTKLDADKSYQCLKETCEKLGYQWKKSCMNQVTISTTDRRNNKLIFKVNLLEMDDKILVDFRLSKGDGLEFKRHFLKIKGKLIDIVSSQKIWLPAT
# Experimental: as §1
# TEK = TEK (Homo sapiens, UniProt Q02763)
# Experimental: as §1
# EPHA2 = EPHA2 (Homo sapiens, UniProt P29317)
# Experimental: as §1
# FGFR1 = FGFR1 (Homo sapiens, UniProt P11362)
# Experimental: as §1
# Misshapen-like Kinase 1 = target: T2, Misshapen-like Kinase 1 (Homo sapiens, UniProt Q8N4C8)
# T2 construct: gene MINK1
# Experimental: as §1
# Rsk1 = target: T3, Rsk1 (Homo sapiens, UniProt Q15418)
# T3 construct: gene RPS6KA1
# Experimental: as §1
# SGK1 = target: T4, SGK1 (Homo sapiens, UniProt O00141)
# T4 sequence (O00141 1-431): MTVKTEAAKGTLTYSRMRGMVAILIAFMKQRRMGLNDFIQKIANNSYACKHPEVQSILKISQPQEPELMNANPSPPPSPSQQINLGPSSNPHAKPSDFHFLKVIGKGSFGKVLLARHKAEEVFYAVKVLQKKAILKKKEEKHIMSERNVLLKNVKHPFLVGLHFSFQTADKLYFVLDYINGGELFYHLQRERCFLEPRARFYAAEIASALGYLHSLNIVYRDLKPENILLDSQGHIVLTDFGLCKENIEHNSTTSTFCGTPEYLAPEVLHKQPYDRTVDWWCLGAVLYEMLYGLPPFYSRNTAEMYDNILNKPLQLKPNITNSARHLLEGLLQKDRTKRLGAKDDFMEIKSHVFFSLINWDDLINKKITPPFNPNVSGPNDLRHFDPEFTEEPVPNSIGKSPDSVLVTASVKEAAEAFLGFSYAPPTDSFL
# Experimental: as §1
# CAMK2A = CAMK2A (Homo sapiens, UniProt Q9UQM7)
# Experimental: as §1
# NTRK1 = NTRK1 (Homo sapiens, UniProt P04629)
# Experimental: as §1
# PDPK1 = target: T5, PDPK1 (Homo sapiens, UniProt O15530)
# T5 sequence (O15530 1-556): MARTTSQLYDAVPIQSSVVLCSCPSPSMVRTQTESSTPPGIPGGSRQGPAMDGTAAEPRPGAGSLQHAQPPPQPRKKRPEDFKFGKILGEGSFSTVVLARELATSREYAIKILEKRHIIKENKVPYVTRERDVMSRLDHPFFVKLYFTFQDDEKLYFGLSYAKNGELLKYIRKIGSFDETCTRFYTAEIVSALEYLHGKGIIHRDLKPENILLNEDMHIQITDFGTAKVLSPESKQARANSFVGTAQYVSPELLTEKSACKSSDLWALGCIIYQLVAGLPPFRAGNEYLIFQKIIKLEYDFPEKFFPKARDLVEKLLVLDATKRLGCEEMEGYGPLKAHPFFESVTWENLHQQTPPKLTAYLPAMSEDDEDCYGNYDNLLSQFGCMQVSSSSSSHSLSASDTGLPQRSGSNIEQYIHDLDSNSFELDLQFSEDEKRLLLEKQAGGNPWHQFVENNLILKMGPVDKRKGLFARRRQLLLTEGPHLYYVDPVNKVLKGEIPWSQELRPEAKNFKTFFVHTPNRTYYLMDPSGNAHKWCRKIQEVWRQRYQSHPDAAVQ
# Experimental: as §1
# AKT1 = AKT1 (Homo sapiens, UniProt P31749)
# Experimental: as §1
# JNK1 = target: T6, JNK1 (Homo sapiens, UniProt P45983)
# T6 construct: gene MAPK8
# Experimental: as §1
# PIM2 = PIM2 (Homo sapiens, UniProt Q9P1W9)
# Experimental: as §1
# CAMK2A, sequence (Q9UQM7 whole entry): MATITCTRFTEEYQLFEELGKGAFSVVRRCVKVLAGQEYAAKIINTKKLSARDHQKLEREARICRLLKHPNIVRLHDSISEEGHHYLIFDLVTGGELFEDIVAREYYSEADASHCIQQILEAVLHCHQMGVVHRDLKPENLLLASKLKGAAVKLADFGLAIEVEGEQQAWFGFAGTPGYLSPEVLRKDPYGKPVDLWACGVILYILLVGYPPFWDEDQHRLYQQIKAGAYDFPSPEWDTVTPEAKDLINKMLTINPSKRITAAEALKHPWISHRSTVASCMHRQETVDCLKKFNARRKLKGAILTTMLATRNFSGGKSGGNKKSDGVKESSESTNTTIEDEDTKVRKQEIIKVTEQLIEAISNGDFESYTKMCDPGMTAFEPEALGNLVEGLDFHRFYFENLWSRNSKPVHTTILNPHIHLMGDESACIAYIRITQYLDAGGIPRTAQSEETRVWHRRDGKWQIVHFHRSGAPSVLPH
# FGFR1, sequence (P11362 whole entry): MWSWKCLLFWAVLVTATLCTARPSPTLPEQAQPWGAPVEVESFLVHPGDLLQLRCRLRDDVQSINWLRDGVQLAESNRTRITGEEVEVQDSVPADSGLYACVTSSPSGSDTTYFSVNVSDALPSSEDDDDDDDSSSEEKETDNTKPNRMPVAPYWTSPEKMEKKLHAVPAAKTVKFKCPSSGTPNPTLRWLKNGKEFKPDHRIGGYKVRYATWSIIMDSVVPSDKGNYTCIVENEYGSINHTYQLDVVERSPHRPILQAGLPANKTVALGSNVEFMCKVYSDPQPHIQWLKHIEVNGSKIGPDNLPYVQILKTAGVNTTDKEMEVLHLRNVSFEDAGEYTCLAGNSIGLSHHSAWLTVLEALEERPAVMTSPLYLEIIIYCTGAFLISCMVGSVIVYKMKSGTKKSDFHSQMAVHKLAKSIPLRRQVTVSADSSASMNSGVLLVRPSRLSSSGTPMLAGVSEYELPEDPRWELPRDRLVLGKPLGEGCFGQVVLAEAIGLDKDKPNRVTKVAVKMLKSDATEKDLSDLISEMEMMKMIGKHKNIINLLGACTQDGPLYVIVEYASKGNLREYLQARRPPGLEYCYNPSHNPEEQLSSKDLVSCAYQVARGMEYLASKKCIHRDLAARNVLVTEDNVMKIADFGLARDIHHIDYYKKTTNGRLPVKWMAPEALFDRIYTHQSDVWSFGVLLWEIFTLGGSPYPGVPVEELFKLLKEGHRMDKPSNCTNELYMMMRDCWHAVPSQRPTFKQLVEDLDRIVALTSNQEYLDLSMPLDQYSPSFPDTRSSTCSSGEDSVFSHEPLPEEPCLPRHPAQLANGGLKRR
# TEK, sequence (Q02763 whole entry): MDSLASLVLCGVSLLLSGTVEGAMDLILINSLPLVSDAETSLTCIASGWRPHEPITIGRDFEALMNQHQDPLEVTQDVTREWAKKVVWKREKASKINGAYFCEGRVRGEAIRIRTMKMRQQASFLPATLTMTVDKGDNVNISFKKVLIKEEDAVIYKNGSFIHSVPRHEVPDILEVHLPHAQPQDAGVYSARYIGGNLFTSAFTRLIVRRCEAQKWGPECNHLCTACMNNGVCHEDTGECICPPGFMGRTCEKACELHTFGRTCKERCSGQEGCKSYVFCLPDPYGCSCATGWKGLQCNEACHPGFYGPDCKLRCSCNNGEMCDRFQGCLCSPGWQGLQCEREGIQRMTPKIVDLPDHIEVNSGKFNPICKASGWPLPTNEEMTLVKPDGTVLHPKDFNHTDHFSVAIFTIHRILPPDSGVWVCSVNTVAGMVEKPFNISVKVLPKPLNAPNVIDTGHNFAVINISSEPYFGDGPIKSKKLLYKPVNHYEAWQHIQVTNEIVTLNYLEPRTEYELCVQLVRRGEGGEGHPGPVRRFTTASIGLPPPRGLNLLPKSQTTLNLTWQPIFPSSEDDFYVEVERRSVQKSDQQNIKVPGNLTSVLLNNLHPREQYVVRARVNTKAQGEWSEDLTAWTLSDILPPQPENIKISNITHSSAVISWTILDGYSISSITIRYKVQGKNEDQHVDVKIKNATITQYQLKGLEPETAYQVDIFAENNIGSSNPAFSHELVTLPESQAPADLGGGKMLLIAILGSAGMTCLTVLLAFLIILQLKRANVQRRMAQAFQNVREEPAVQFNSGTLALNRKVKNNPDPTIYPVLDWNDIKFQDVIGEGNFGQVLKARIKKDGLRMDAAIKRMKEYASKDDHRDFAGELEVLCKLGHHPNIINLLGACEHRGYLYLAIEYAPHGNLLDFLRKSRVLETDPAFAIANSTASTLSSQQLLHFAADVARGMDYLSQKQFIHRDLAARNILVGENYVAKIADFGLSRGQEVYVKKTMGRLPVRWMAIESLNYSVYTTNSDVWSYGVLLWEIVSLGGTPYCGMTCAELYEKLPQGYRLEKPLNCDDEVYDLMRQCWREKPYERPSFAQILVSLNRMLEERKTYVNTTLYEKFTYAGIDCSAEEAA
# NTRK1, sequence (P04629 whole entry): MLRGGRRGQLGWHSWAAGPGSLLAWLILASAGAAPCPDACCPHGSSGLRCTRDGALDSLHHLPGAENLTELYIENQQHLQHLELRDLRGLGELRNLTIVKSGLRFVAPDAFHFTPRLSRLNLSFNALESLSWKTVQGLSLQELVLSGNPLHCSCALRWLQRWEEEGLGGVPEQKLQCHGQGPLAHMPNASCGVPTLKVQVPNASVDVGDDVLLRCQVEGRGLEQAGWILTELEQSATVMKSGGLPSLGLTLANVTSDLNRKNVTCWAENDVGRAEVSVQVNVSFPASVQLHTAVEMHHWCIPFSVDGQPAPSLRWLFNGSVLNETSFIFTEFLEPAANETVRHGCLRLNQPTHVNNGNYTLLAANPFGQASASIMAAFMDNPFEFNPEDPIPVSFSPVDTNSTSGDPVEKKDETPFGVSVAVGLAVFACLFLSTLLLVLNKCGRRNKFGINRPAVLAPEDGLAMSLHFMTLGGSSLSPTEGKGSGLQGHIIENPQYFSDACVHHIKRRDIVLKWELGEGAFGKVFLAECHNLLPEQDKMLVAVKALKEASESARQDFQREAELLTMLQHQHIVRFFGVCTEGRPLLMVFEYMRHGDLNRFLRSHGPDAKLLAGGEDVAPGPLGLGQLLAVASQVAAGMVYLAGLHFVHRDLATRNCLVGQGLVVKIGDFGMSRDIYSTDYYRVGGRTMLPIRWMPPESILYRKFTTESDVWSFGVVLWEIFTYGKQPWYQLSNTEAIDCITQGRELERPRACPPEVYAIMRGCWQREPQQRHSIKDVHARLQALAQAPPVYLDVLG
# AKT1, sequence (P31749 whole entry): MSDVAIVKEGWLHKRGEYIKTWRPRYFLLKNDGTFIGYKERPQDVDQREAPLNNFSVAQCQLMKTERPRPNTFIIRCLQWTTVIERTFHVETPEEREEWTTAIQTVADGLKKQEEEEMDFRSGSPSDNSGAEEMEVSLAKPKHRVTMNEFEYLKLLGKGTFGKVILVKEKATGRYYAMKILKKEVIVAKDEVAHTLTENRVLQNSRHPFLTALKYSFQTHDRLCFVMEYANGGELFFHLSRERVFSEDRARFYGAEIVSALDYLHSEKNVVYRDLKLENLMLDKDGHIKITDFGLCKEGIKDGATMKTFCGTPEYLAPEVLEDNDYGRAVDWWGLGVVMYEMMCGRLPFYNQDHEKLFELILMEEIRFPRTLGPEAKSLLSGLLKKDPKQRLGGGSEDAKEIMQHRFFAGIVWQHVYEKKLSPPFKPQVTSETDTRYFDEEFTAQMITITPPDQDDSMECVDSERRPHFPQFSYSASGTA
# EPHA2, sequence (P29317 whole entry): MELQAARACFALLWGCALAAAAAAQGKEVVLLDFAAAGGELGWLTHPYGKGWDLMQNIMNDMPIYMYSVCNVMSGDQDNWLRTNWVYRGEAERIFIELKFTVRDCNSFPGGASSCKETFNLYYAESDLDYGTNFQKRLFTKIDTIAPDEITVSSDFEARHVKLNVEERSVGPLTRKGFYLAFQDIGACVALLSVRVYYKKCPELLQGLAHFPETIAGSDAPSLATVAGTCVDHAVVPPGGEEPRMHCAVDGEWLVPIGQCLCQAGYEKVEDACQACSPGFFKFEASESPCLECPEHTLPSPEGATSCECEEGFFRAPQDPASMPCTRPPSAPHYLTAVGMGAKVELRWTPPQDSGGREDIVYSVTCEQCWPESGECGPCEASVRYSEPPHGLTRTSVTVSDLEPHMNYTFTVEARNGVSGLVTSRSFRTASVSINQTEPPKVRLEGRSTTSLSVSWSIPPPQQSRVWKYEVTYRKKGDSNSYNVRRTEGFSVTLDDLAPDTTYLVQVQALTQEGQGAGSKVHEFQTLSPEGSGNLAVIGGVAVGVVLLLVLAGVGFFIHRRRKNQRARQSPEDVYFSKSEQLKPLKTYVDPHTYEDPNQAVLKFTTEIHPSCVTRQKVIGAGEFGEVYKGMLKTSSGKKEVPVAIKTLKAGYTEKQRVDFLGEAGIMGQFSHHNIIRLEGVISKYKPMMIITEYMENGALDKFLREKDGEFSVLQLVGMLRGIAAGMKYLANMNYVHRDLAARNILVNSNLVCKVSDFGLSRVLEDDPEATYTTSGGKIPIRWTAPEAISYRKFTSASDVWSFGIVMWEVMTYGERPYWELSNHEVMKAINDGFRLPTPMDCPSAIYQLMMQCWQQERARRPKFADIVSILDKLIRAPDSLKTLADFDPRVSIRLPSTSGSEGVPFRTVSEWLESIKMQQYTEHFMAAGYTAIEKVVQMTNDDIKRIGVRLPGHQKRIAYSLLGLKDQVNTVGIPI
# PIM2, sequence (Q9P1W9 whole entry): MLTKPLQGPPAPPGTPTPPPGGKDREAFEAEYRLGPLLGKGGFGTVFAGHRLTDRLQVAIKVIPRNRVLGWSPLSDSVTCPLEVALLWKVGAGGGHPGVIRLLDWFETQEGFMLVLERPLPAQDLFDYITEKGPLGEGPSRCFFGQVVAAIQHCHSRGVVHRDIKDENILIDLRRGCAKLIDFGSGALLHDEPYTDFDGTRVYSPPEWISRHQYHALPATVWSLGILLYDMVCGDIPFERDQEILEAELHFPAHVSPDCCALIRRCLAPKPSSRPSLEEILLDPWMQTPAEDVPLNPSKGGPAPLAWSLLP
smiles,measurement,setting,value
"CCC1(COc2ccc(-c3csc(-c4ccccc4C(=O)O)n3)cn2)CC1 [PF-07247685, 2-(4-{6-[(1-ethylcyclopropyl)methoxy]pyridin-3-yl}-1,3-thiazol-2-yl)benzoic acid]",ATP = Km % Inhibition PF-07247685,HCK,4.5%
same,ATP = 1 mM % Inhibition PF-07247685,CHEK1,4.5%
same,ATP = Km % Inhibition PF-07247685,CHEK1,-3.1%
same,ATP = 1 mM % Inhibition PF-07247685,TEK,8.6%
same,ATP = Km % Inhibition PF-07247685,TEK,0.6%
same,ATP = 1 mM % Inhibition PF-07247685,EPHA2,5.6%
same,ATP = Km % Inhibition PF-07247685,EPHA2,0.6%
same,ATP = 1 mM % Inhibition PF-07247685,FGFR1,2.1%
same,ATP = Km % Inhibition PF-07247685,FGFR1,8.8%
same,ATP = Km % Inhibition PF-07247685,Misshapen-like Kinase 1,21.9%
same,ATP = Km % Inhibition PF-07247685,Rsk1,2.4%
same,ATP = 1 mM % Inhibition PF-07247685,SGK1,-5.1%
same,ATP = Km % Inhibition PF-07247685,SGK1,0.7%
same,ATP = 1 mM % Inhibition PF-07247685,CAMK2A,3.5%
same,ATP = Km % Inhibition PF-07247685,CAMK2A,2.8%
same,ATP = 1 mM % Inhibition PF-07247685,NTRK1,10.0%
same,ATP = Km % Inhibition PF-07247685,NTRK1,14.5%
same,ATP = 1 mM % Inhibition PF-07247685,PDPK1,2.0%
same,ATP = Km % Inhibition PF-07247685,PDPK1,-0.6%
same,ATP = 1 mM % Inhibition PF-07247685,AKT1,-0.8%
same,ATP = Km % Inhibition PF-07247685,AKT1,2.4%
same,ATP = 100 uM % Inhibition PF-07247685,JNK1,2.1%
same,ATP = 1 mM % Inhibition PF-07247685,PIM2,0.9%
same,ATP = Km % Inhibition PF-07247685,PIM2,0.1%
"O=C(O)c1sc2cc(F)sc2c1Cl [PF-07208254, 3-chloro-5-fluorothieno[3,2-b]thiophene-2-carboxylic acid]",ATP = Km % Inhibition PF-07208254,HCK,9.9%
same,ATP = 1 mM % Inhibition PF-07208254,CHEK1,4.3%
same,ATP = Km % Inhibition PF-07208254,CHEK1,4.6%
same,ATP = 1 mM % Inhibition PF-07208254,TEK,0.7%
same,ATP = Km % Inhibition PF-07208254,TEK,0.3%
same,ATP = 1 mM % Inhibition PF-07208254,EPHA2,-5.6%
same,ATP = Km % Inhibition PF-07208254,EPHA2,0.5%
same,ATP = 1 mM % Inhibition PF-07208254,FGFR1,-0.5%
same,ATP = Km % Inhibition PF-07208254,FGFR1,-0.5%
same,ATP = Km % Inhibition PF-07208254,Misshapen-like Kinase 1,-3.3%
same,ATP = Km % Inhibition PF-07208254,Rsk1,3.3%
same,ATP = 1 mM % Inhibition PF-07208254,SGK1,1.9%
same,ATP = Km % Inhibition PF-07208254,SGK1,-0.1%
same,ATP = 1 mM % Inhibition PF-07208254,CAMK2A,-0.3%
same,ATP = Km % Inhibition PF-07208254,CAMK2A,6.8%
same,ATP = 1 mM % Inhibition PF-07208254,NTRK1,5.8%
same,ATP = Km % Inhibition PF-07208254,NTRK1,5.6%
same,ATP = 1 mM % Inhibition PF-07208254,PDPK1,-3.1%
same,ATP = Km % Inhibition PF-07208254,PDPK1,-3.2%
same,ATP = 1 mM % Inhibition PF-07208254,AKT1,-0.8%
same,ATP = Km % Inhibition PF-07208254,AKT1,6.7%
same,ATP = 100 uM % Inhibition PF-07208254,JNK1,-0.6%
same,ATP = 1 mM % Inhibition PF-07208254,PIM2,-5.2%
same,ATP = Km % Inhibition PF-07208254,PIM2,22.3%
